Experimental data reported in patent publication US20160201063A1, “EPIGENETIC REGULATORS OF FRATAXIN” (RANA THERAPEUTICS, INC., priority 2013, published 2016).
Counter-ions that a name gives are not always drawn.

What was measured:
FXN mRNA [1] = assay: Screen of library of eighty epigenetic inhibitors in GM03816 FRDA diseased fibroblasts, FXN mRNA fold change; assay type: cell-based, human; settings: for fold induction at 1 µM / fold induction at 5 µM: Homo sapiens, Fibroblast, 72 h; for fold induction at 1 µM: read-out: 3816 1 uM (FXN mRNA fold change); for fold induction at 5 µM: read-out: 3816 5 uM (FXN mRNA fold change)
Experimental: FXN RNA levels are indicated on the y-axis and the inhibitors used at both 1 μM and 5 μM are shown on the x-axis.
A screen of a library of eighty epigenetic inhibitors (Cayman Chemical) was performed in GM03816 FRDA fibroblasts to identify epigenetic regulators that upregulate FXN expression.

FXN mRNA [2] = assay: Screen of epigenetic inhibitors in GM0321 normal fibroblasts, FXN RNA levels; assay type: cell-based, human; settings: for fold induction at 1 µM / fold induction at 5 µM: Homo sapiens, Fibroblast, 72 h; for fold induction at 1 µM: read-out: FXN mRNA fold change, 321B 1 uM; for fold induction at 5 µM: read-out: FXN mRNA fold change, 321B 5 uM
[3] = GM03816 FRDA diseased fibroblasts, 1 uM inhibitor, 3 days of treatment
[4] = GM03816 FRDA diseased fibroblasts, 5 uM inhibitor, 3 days of treatment
[5] = GM0321 normal fibroblasts, 1 uM inhibitor, 3 days of treatment
[6] = GM0321 normal fibroblasts, 5 uM inhibitor, 3 days of treatment

Row | Compound | 3816 1 uM (FXN mRNA fold change) (FXN mRNA [1]; [3]) | 3816 5 uM (FXN mRNA fold change) (FXN mRNA [1]; [4]) | FXN mRNA fold change, 321B 1 uM (FXN mRNA [2]; [5]) | FXN mRNA fold change, 321B 5 uM (FXN mRNA [2]; [6]) | also measured
1 | CCOC(=O)CCNc1cc(N2CCc3ccccc3CC2)nc(-c2cccnc2)n1.Cl [GSK-J5 (hydrochloride)] | 1.183 | 0.9451 | 0.8597 | 0.9741 | –
2 | O=C(Nc1ccc2c(O)cc(S(=O)(=O)O)cc2c1)Nc1ccc2c(O)cc(S(=O)(=O)O)cc2c1 [AMI-1] | 0.5579 | 0.566 | – | 0.4073 | –
3 | CN(C)c1ccc(C(=O)NCCCCCC(=O)NO)cc1 [CAY10398] | 0.6921 | 0.2339 | 0.5049 | 0.2106 | –
4 | CC(/C=C/C(=O)NO)=C\[C@@H](C)C(=O)c1ccc(N(C)C)cc1 [Trichostatin A] | 0.9338 | 0.6921 | 1.023 | 0.7721 | –
5 | COc1cc2c(NC3CCN(C(C)C)CC3)nc(C3CCCCC3)nc2cc1OCCCN1CCCC1 [UNC0638, 2-Cyclohexyl-6-methoxy-N-[1-(1-methylethyl)-4-piperidinyl]-7-[3-(1-pyrrolidinyl)propoxy]-4-quinazolinamine, reference compound] | – | – | – | – | fold induction at 1 µM (FXN mRNA [1]; [3]): 1.27; fold induction at 5 µM (FXN mRNA [1]; [4]): 1.17; fold induction at 1 µM (FXN mRNA [2]; [5]): 1.09; fold induction at 5 µM (FXN mRNA [2]; [6]): 1.02
6 | Oc1cc(O)c2cc(O)c(-c3cc(O)c(O)c(O)c3)[o+]c2c1 [Delphinidin chloride] | – | – | – | – | fold induction at 1 µM (FXN mRNA [1]; [3]): 0.954; fold induction at 5 µM (FXN mRNA [1]; [4]): 0.885; fold induction at 1 µM (FXN mRNA [2]; [5]): 1.09; fold induction at 5 µM (FXN mRNA [2]; [6]): 1.04
7 | CCCC(CCC)C(=O)O [Valproic acid] | – | – | – | – | fold induction at 1 µM (FXN mRNA [1]; [3]): 0.901; fold induction at 5 µM (FXN mRNA [1]; [4]): 1; fold induction at 1 µM (FXN mRNA [2]; [5]): 1.26; fold induction at 5 µM (FXN mRNA [2]; [6]): 0.847
8 | C=C(C)[C@@H](CC=C(C)C)C[C@@]12C[C@@H](CC=C(C)C)C(C)(C)[C@@](CC=C(C)C)(C(=O)C(C(=O)c3ccc(O)c(O)c3)=C1O)C2=O [Garcinol] | – | – | – | – | fold induction at 1 µM (FXN mRNA [1]; [3]): 1.01; fold induction at 5 µM (FXN mRNA [1]; [4]): 1.09; fold induction at 1 µM (FXN mRNA [2]; [5]): 0.63; fold induction at 5 µM (FXN mRNA [2]; [6]): 1.33
9 | CN(C)NC(=O)CCC(=O)O [Daminozide] | – | – | – | – | fold induction at 1 µM (FXN mRNA [1]): 0.824; fold induction at 5 µM (FXN mRNA [1]): 0.881; fold induction at 1 µM (FXN mRNA [2]): 1.04; fold induction at 5 µM (FXN mRNA [2]): 0.898
10 | O=C(NCc1ccccc1)c1c(/N=C/c2c(O)ccc3ccccc23)sc2c1CCCC2 [JGB1741] | 1.006 | 1.17 | 0.9963 | 0.7224 | –
11 | Cl.N[C@@H]1C[C@H]1c1ccccc1 (racemic) [2-PCPA (hydrochloride)] | 1.058 | 0.8786 | 0.7149 | 0.7888 | –
12 | O=C(Nc1ccc(Cl)cc1)C1CCCN(C(=O)c2cc(C(F)(F)F)cc(C(F)(F)F)c2)C1 (centres unmarked) [CCG-100602] | 1.147 | 1.213 | 0.8325 | 0.9592 | –
13 | CN1CCc2c(c3ccccc3n2Cc2ccc(C(=O)NO)cc2)C1 [Tubastatin A] | 0.9276 | 0.9192 | 0.8993 | 1.038 | –
14 | Nc1ccccc1NC(=O)c1ccc(CNC(=O)OCc2cccnc2)cc1 [MS-275] | 0.2266 | 0.2333 | – | 0.2713 | –
15 | UNC0321 (trifluoroacetate salt) | 0.9323 | 0.8929 | 0.7517 | 0.605 | –
16 | O=C(c1ccc(C(=O)N2CCC(N3CCCC3)CC2)c(Nc2ccccc2)c1)N1CCC(N2CCCC2)CC1 [UNC1215] | 0.6911 | 0.8743 | – | – | –
17 | O=C(CCCCCCC(=O)Nc1ccccc1)NO [SAHA] | 0.4857 | 0.0916 | 0.4256 | 0.1923 | –
18 | O=C1CCc2c(ccc3ccccc23)O1 [Splitomicin] | – | – | – | – | fold induction at 1 µM (FXN mRNA [1]; [3]): 0.957; fold induction at 5 µM (FXN mRNA [1]; [4]): 0.939; fold induction at 1 µM (FXN mRNA [2]; [5]): 1.08; fold induction at 5 µM (FXN mRNA [2]; [6]): 1.01
19 | (3S,3′S,5aR,5aR,10bR,10′bR,11aS,11′aS)- 2,2′,3,3′,5a,5′a,6,6′-octahydro- 3,3′-bis(hydroxymethyl)-2,2′- dimethyl-[10b,10′b(11H,11′H)- bi3,11a-epidithio-11aH- pyrazino[1′,2′:1,5]pyrrolo[2,3- b]indole]-1,1′4,4′-tetrone [Chaetocin, reference compound] | 0.9302 | 0.7778 | 0.9084 | 0.9952 | –
20 | CN(C)CCCCC(=O)Nc1ccc(NC(=S)NC(=O)c2ccc(C(C)(C)C)cc2)cc1 [Tenovin-6] | – | – | 1.23 | 1.282 | –

Row | Compound | 3816 1 uM (FXN mRNA fold change) (FXN mRNA [1]; [3]) | 3816 5 uM (FXN mRNA fold change) (FXN mRNA [1]; [4]) | FXN mRNA fold change, 321B 1 uM (FXN mRNA [2]; [5]) | FXN mRNA fold change, 321B 5 uM (FXN mRNA [2]; [6]) | also measured
21 | N=C1NC(=O)/C(=C/c2ccc(O)cc2)S1 [Mirin] | – | – | – | – | fold induction at 1 µM (FXN mRNA [1]): 1.06; fold induction at 5 µM (FXN mRNA [1]): 0.679; fold induction at 1 µM (FXN mRNA [2]): 1.08; fold induction at 5 µM (FXN mRNA [2]): 1.31
22 | CC(C)[C@H](C(=O)Nc1ccc(C(=O)NO)cc1)c1ccccc1 [(S)-HDAC-42] | 0.2419 | 0.1894 | – | 0.6941 | –
23 | NC(=O)c1cccnc1 [Nicotinamide] | – | – | – | – | fold induction at 1 µM (FXN mRNA [1]; [3]): 0.852; fold induction at 5 µM (FXN mRNA [1]; [4]): 0.775; fold induction at 1 µM (FXN mRNA [2]; [5]): 0.687; fold induction at 5 µM (FXN mRNA [2]; [6]): 0.702
24 | NC(=O)[C@H](CCCN=C(N)CF)NC(=O)c1ccccc1 [F-Amidine] | 0.7818 | 0.6484 | 0.9152 | 0.9697 | –
25 | Cc1ccc(NC(=O)CCCCCC(=O)Nc2ccccc2N)cc1 [Pimelic Diphenylamide 106] | 0.7457 | 0.4858 | 0.694 | 0.2094 | –
26 | CCCCc1nc2cc(/C=C/C(=O)NO)ccc2n1CCN(CC)CC [SB 939] | – | – | – | – | fold induction at 1 µM (FXN mRNA [1]; [3]): 0.298; fold induction at 5 µM (FXN mRNA [1]; [4]): 0.315; fold induction at 1 µM (FXN mRNA [2]; [5]): 0.435; fold induction at 5 µM (FXN mRNA [2]; [6]): 0.465
27 | O=C(O)c1ccnc(C(=O)O)c1 [2,4-Pyridinedicarboxylic Acid] | – | – | – | – | fold induction at 1 µM (FXN mRNA [1]; [3]): 0.885; fold induction at 5 µM (FXN mRNA [1]; [4]): 0.888; fold induction at 1 µM (FXN mRNA [2]; [5]): 0.458; fold induction at 5 µM (FXN mRNA [2]; [6]): 0.645
28 | CC(C)(C)OC(=O)Nc1ccc(-c2cc(C(=O)NCCCCCCC(=O)NO)no2)cc1 [CAY10603] | 0.5205 | 0.07004 | 0.3592 | – | –
29 | Nc1nccc2c1ncn2C1C=C(CO)C(O)C1O (centres unmarked) [3-Deazaneplanocin A] | 0.1514 | 0.2102 | 0.2641 | 0.1265 | –
30 | CCCCCOc1ccc(/C=C\c2cccc(O)c2C(=O)O)cc1 [CAY10669] | 0.8709 | 1.074 | 0.7796 | 0.3094 | –
31 | Nc1nc(OCc2cc(Br)cs2)c2[nH]cnc2n1 [Lomeguatrib] | – | – | – | – | fold induction at 1 µM (FXN mRNA [2]; [5]): 1.05; fold induction at 5 µM (FXN mRNA [2]; [6]): 1.28
32 | O=C(O)c1ccc(O)c2ncccc12 [IOX1] | 1.272 | 0.8722 | 0.9479 | 0.7185 | –
33 | O=C(O)CCNc1cc(N2CCc3ccccc3CC2)nc(-c2cccnc2)n1 [GSK-J2 (sodium salt)] | 0.9711 | 0.9938 | 1.063 | – | –
34 | CNCc1ccc(-c2[nH]c3cc(F)cc4c3c2CCNC4=O)cc1 [AG-014699] | – | – | – | – | fold induction at 1 µM (FXN mRNA [1]; [3]): 1.06; fold induction at 5 µM (FXN mRNA [1]; [4]): 0.892; fold induction at 1 µM (FXN mRNA [2]; [5]): 0.895; fold induction at 5 µM (FXN mRNA [2]; [6]): 1
35 | Anacardic Acid | 1.162 | 1.01 | 1.169 | 0.8356 | –
36 | Nc1ncn([C@H]2C[C@H](O)[C@@H](CO)O2)c(=O)n1 [Decitabine] | – | – | – | – | fold induction at 1 µM (FXN mRNA [2]; [5]): 1.15; fold induction at 5 µM (FXN mRNA [2]; [6]): 1.53
37 | Nc1ccccc1NC(=O)CCCCCCC(=O)Nc1ccccc1 [CAY10433] | 0.8309 | 0.8827 | 1.03 | 0.7782 | –
38 | O=C(CCCCCCC(=O)Nc1ccc(I)cc1)NO [Oligo 4-iodo-SAHA] | 0.6878 | 0.1302 | 0.668 | 0.5901 | –
39 | CC(=O)Nc1ccc(NC(=S)NC(=O)c2ccc(C(C)(C)C)cc2)cc1 [tenovin-1] | – | – | 1.444 | – | –
